Assay results reported in patent US10173985B2, “Aminoindazole derivatives as sodium channel inhibitors” (ALMIRALL, S.A., priority 2015, dated 2019).

Columns and labels:
[1] = molecular target: voltage-gated sodium channel Nav1.7 (Homo sapiens (Human), UniProt Q15858); experiment: Nav1.7 screening assay, IonWorks Quattro automated patch-clamp electrophysiology; assay type: cell-based; conditions: stable CHO or HEK293 cell line expressing Nav1.7; percent block at peak 1 and peak 10; 5 minutes compound incubation; read-out: Nav 1.7 IC50
Description: (§1) Assay Procedure Nav1.7 and Nav1.5 Screening Assay
(§2) Stable cell lines expressing the full-length protein of the voltage-gated sodium channels Nav1.7 or Nav1.5, with or without one beta-1, beta-2, beta-3, or beta-4 subunit, are created by transfected CHO cells or HEK293 cells, or any other suitable cell line, with a vector construct containing the complete open reading frame under a suitable promoter, as well known in the art.
(§3) Electrophysiological studies are performed with an IonWorks Quattro (Molecular Devices Corp.) automated patch-clamp electrophysiology platform as described by (Schroeder K et al. Journal of Biomolecular Screening 2003, 8 (1), 50-64). Buffers for the experiments have the following composition (mM): Internal solution; K-gluconate 100, KCl 40, MgCl2 3.2, HEPES 5, EGTA 3, pH 7.3. To this amphotericin B is added to final concentration of 0.1 mg/ml to generate access solution. External solution; Dulbecco's Phosphate buffered saline (D-PBS) NaCl 137.93, KCl 2.67, KH2PO4 1.47, Na2HPO4 8.06, CaCl2 0.90, MgCl2 0.49. Prior to the experiment the cells expressing the voltage-gated ion channel of interest are detached from the tissue culture flasks, centrifuged and resuspended in D-PBS. Compounds are prepared and serially diluted in DMSO and finally diluted 1:100 in D-PBS. Cells are exposed to compounds through the pipetting system integrated into the platform and the voltage-gated ion channel of interest is activated with specific voltage stimulation protocols. The following voltage stimulation protocol is used for testing compounds against the voltage-gated sodium channel Nav1.7; from a holding potential of −100 mV a train of eight 60 ms depolarising steps to −20 mV at a frequency of 14 Hz are employed followed by a further step to −20 mV for 2000 ms. After which the voltage is returned to −100 mV for 10 ms before another voltage step to −20 mV for 60 ms is applied. The following voltage stimulation protocol is used for testing compounds against the voltage-gated sodium channel Nav1.5; from a holding potential of −120 mV a train of twenty-six 120 ms depolarising steps to −20 mV at a frequency of 5 Hz are employed. Recordings are made before and after compound addition with the compound incubation time being 5 minutes.

[2] = molecular target: voltage-gated sodium channel Nav1.5 (Homo sapiens (Human), UniProt Q14524); experiment: Nav1.5 screening assay, IonWorks Quattro automated patch-clamp electrophysiology; assay type: cell-based; conditions: stable CHO or HEK293 cell line expressing Nav1.5; percent block at peak 1 and 25; 5 minutes compound incubation; read-out: Nav 1.5 IC50
Description: as §1, §2, §3

Sequence of voltage-gated sodium channel Nav1.5 (Q14524 whole entry): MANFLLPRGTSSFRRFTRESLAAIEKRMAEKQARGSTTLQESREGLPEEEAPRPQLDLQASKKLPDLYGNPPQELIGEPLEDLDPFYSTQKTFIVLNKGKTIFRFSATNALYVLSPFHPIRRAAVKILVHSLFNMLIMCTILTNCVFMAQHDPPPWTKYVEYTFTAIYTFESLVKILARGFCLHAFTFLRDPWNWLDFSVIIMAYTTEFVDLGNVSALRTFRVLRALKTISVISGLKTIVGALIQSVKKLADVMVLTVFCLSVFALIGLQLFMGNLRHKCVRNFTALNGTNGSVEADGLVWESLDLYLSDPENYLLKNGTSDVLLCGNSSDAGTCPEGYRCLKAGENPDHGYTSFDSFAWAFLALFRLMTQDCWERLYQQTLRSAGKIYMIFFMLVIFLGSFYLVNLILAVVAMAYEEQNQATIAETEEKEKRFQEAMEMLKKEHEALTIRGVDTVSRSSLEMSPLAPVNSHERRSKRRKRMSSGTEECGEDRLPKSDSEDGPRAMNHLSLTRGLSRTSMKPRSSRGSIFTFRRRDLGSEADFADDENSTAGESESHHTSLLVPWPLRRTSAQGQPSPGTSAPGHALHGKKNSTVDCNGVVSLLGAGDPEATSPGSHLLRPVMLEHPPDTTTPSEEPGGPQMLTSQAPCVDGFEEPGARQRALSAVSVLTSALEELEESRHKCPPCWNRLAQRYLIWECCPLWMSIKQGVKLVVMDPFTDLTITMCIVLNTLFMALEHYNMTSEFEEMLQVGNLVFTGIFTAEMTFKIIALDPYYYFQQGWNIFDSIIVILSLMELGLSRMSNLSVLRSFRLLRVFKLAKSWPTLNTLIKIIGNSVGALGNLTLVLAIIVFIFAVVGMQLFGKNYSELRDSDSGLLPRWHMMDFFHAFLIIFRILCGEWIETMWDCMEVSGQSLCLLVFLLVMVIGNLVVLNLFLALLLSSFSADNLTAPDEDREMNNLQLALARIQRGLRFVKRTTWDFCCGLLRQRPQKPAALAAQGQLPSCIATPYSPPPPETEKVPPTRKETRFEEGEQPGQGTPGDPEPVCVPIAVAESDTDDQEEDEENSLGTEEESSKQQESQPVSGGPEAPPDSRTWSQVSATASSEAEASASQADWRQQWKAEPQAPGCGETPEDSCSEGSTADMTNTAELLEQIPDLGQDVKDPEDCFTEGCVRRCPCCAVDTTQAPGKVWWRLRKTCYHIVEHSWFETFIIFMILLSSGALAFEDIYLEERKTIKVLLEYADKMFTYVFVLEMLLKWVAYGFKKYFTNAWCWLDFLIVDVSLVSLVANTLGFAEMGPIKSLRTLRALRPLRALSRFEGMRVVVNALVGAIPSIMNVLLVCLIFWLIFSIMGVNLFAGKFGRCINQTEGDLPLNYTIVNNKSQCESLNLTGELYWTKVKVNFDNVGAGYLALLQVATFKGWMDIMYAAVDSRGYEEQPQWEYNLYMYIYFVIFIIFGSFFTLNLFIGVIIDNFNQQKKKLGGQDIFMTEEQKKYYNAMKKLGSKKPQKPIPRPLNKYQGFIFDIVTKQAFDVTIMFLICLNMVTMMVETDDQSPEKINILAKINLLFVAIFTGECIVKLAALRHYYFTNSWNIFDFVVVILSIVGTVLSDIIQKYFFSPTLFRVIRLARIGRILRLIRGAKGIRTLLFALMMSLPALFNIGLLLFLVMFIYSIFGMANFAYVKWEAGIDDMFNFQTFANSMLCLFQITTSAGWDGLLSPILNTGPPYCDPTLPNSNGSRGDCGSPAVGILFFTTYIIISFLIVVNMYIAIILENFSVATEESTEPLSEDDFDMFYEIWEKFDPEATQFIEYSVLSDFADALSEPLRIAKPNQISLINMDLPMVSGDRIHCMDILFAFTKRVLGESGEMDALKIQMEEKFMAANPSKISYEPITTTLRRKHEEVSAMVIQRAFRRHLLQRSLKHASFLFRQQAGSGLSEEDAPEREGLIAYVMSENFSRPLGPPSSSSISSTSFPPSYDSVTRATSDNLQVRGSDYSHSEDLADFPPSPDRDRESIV
Sequence of voltage-gated sodium channel Nav1.7 (Q15858 whole entry): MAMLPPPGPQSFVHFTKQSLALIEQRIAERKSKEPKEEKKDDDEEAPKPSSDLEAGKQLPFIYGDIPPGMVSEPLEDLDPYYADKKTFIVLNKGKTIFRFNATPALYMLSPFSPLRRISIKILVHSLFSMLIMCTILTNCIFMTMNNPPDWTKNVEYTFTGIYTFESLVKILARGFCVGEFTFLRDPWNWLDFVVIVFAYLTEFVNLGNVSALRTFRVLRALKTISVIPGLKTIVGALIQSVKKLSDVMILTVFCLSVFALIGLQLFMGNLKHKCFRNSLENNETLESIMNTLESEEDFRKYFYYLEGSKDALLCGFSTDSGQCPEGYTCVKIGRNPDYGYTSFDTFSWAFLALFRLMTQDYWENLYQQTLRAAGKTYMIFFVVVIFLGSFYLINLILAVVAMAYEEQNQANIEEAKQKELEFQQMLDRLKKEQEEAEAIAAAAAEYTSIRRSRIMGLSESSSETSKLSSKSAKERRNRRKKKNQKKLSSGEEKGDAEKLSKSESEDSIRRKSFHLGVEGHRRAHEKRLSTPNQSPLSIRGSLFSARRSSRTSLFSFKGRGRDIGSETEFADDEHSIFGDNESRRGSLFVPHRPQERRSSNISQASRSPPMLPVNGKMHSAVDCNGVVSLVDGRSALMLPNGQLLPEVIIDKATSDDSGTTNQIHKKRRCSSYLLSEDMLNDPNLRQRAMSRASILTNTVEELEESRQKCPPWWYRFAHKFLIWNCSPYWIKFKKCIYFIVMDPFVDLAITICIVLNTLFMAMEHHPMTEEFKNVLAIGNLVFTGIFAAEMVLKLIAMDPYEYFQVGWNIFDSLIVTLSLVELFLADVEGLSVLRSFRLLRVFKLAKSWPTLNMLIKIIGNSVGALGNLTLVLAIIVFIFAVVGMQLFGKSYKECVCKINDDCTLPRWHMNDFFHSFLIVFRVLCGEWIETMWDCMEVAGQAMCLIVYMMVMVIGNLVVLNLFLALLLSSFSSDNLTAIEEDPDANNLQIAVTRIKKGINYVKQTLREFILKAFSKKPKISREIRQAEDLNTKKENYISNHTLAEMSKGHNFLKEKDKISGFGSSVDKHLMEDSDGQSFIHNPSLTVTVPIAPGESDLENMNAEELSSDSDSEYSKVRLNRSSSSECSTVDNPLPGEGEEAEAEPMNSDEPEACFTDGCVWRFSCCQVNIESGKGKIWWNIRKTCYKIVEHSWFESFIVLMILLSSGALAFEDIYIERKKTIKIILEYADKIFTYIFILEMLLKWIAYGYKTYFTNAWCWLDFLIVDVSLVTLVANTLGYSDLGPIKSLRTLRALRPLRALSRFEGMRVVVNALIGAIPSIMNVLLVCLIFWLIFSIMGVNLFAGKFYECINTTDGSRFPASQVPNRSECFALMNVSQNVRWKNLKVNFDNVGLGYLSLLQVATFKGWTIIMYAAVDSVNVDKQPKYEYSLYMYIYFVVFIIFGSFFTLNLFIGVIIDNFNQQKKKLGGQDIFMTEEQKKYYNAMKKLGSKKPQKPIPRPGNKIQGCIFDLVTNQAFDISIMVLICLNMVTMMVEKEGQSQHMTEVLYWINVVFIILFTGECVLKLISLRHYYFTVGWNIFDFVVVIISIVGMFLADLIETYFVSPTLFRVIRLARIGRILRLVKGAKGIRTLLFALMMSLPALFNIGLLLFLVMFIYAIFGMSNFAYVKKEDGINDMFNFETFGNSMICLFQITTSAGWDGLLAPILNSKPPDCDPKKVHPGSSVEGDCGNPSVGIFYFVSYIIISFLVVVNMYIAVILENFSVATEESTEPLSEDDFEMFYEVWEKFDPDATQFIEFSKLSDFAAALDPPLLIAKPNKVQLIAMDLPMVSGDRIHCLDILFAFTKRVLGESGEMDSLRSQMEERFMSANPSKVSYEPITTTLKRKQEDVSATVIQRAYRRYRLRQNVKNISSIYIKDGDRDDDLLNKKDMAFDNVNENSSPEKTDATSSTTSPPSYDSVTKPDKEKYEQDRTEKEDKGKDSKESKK

| Compound | IC50 [1] [nM] | IC50 [2] [nM] |
| --- | --- | --- |
| Cn1nc(NCCO)c2ccc(-c3ccccc3OCC(F)(F)C(F)(F)F)cc21 [Example 12, 2-(1-methyl-6-(2-(2,2,3,3,3-pentafluoropropoxy)phenyl)-1H-indazol-3-ylamino)ethanol] | 820 | > 33000 |
| COc1cccc(-c2ccc3c(N)nn(C)c3c2)c1OCC(F)F [Example 41, 6-(2-(2,2-difluoroethoxy)-3-methoxyphenyl)-1-methyl-1H-indazol-3-amine] |  | > 33000 |
| COc1ccc(OCC(F)(F)C(F)(F)F)c(-c2ccc3c(N)nn(C)c3c2)c1 [Example 3, 6-(5-methoxy-2-(2,2,3,3,3-pentafluoropropoxy)phenyl)-1-methyl-1H-indazol-3-amine] |  | > 33000 |
| Cn1nc(NCCCO)c2ccc(-c3ccccc3OCC(F)(F)C(F)(F)F)cc21 [Example 27, 3-(1-methyl-6-(2-(2,2,3,3,3-pentafluoropropoxy)phenyl)-1H-indazol-3-ylamino)propan-1-ol] | 1500 | 19800 |
| Nc1nn(CCCO)c2cc(-c3ccccc3C(F)(F)F)ccc12 [Example 67, 3-(3-amino-6-(2-(trifluoromethyl)phenyl)-1H-indazol-1-yl)propan-1-ol] | 740 | 30000 |
| NC(=O)Cn1nc(N)c2ccc(-c3cccc(F)c3OCC(F)(F)C(F)(F)F)cc21 [Example 26, 2-(3-amino-6-(3-fluoro-2-(2,2,3,3,3-pentafluoropropoxy)phenyl)-1H-indazol-1-yl)acetamide] | 3650 |  |
| CNc1nn(C)c2cc(-c3cccc(F)c3OCC(F)F)ccc12 [Example 57, 6-(2-(2,2-difluoroethoxy)-3-fluorophenyl)-N,1-dimethyl-1H-indazol-3-amine] | 1300 | > 33000 |
| Cn1nc(N)c2ccc(-c3cccc(F)c3OC(F)F)cc21 [Example 58, 6-(2-(difluoromethoxy)-3-fluorophenyl)-1-methyl-1H-indazol-3-amine] | 860 | > 33000 |
| CN1CCC(CNc2nn(C)c3cc(-c4cccc(F)c4OCC(F)(F)F)ccc23)CC1 [Example 44, 6-(3-fluoro-2-(2,2,2-trifluoroethoxy)phenyl)-1-methyl-N-((1-methylpiperidin-4-yl)methyl)-1H-indazol-3-amine] | 1860 | 4500 |
| COCCn1nc(N)c2ccc(-c3ccccc3OC(F)(F)F)cc21 [Example 82, 1-(2-methoxyethyl)-6-(2-(trifluoromethoxy)phenyl)-1H-indazol-3-amine] | 2000 |  |
| Cn1nc(N)c2ccc(-c3cccnc3OCC(F)(F)F)cc21 [Example 47, 1-methyl-6-(2-(2,2,2-trifluoroethoxy)pyridin-3-yl)-1H-indazol-3-amine] | 2370 | > 33000 |
| 6-(2-(2,2,3,3,3-pentafluoropropoxy)phenyl)-1H-indazol-3-amine [Example 14] | 560 | 8000 |

Continued, in another order:

| IC50 [1] [nM] | Compound | IC50 [2] [nM] |
| --- | --- | --- |
| 100 | Cn1nc(N)c2ccc(-c3cccc(F)c3OCC(F)(F)C(F)(F)F)cc21 [Example 22, 6-(3-fluoro-2-(2,2,3,3,3-pentafluoropropoxy)phenyl)-1-methyl-1H-indazol-3-amine] | > 33000 |
| 290 | Cn1nc(N)c2ccc(-c3cccc(F)c3OCC(F)F)cc21 [Example 42, 6-(2-(2,2-difluoroethoxy)-3-fluorophenyl)-1-methyl-1H-indazol-3-amine] | 23000 |
| 200 | COc1cccc(-c2ccc3c(N)nn(C)c3c2)c1OCC(F)(F)F [Example 40, 6-(3-methoxy-2-(2,2,2-trifluoroethoxy)phenyl)-1-methyl-1H-indazol-3-amine] | > 33000 |
| 320 | Cn1nc(N)c2ccc(-c3ccccc3OCC(F)(F)F)cc21 [Example 8, 1-methyl-6-(2-(2,2,2-trifluoroethoxy)phenyl)-1H-indazol-3-amine] | > 33000 |
| 200 | Nc1nn(CCCO)c2cc(-c3ccccc3OC(F)(F)F)ccc12 [Example 68, 3-(3-amino-6-(2-(trifluoromethoxy)phenyl)-1H-indazol-1-yl)propan-1-ol] | 25000 |
| 560 | Cn1nc(N)c2ccc(-c3c(F)cccc3OCC(F)(F)C(F)(F)F)cc21 [Example 24, 6-(2-fluoro-6-(2,2,3,3,3-pentafluoropropoxy)phenyl)-1-methyl-1H-indazol-3-amine] | > 33000 |
